Assay results: the supplement of paper PMC10883282

How the values were obtained:
Assay in all cases: relative viability vs DMSO control (72 h) (fraction); higher = more viable cells
[1] = tested on: A204
Method in brief: (§1)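 Relative viability was measured with ATPLite and expressed as percent growth, averaged across up to triplicate wells. Sarcoma cell lines had been seeded in 384-well plates to reach 80–90% confluence, dosed after 24 h, and incubated 72 h at 37 °C, 5% CO2. All data were rescaled on a scale where 1 is full and 0 is none.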

[2] = tested on: G401
Method in brief: as §1

[3] = tested on: HS729
Method in brief: as §1

[4] = tested on: HT1080
Method in brief: as §1

[5] = tested on: KHOS-NP
Method in brief: as §1

[6] = tested on: RD-ES
Method in brief: as §1

[7] = tested on: SK-ES-1
Method in brief: as §1

[8] = tested on: SK-LMS-1
Method in brief: as §1

[9] = tested on: SW684
Method in brief: as §1

[10] = tested on: SW872
Method in brief: as §1

[11] = tested on: SW982
Method in brief: as §1

[12] = tested on: VA-ES-BJ
Method in brief: as §1

Cc1cc2c(F)c(Oc3ncnn4cc(OC[C@@H](C)O)c(C)c34)ccc2[nH]1 [Brivanib]
Settings	relative viability
[1], 0.00017 µM	1.05
[1], 0.00051 µM	1.035
[1], 0.00152 µM	1.02
[1], 0.00457 µM	1.07
[1], 0.01372 µM	1.06
[1], 0.04115 µM	1.03
[1], 0.1235 µM	1.01
[1], 0.3704 µM	1.01
[1], 1.111 µM	0.987
[1], 3.333 µM	0.95
[1], 10 µM	0.642
[2], 0.00017 µM	0.939
[2], 0.00051 µM	0.989
[2], 0.00152 µM	0.965
[2], 0.00457 µM	0.921
[2], 0.01372 µM	0.969
[2], 0.04115 µM	0.979
[2], 0.1235 µM	0.964
[2], 0.3704 µM	0.99
[2], 1.111 µM	0.979
[2], 3.333 µM	0.955
[2], 10 µM	0.922
[3], 0.00017 µM	0.93
[3], 0.00051 µM	0.949
[3], 0.00152 µM	0.955
[3], 0.00457 µM	0.943
[3], 0.01372 µM	0.929
[3], 0.04115 µM	0.912
[3], 0.1235 µM	0.925
[3], 0.3704 µM	0.964
[3], 1.111 µM	0.963
[3], 3.333 µM	0.921
[3], 10 µM	0.856
[4], 0.00017 µM	1.04
[4], 0.00051 µM	1.026
[4], 0.00152 µM	1.05
[4], 0.00457 µM	1.06
[4], 0.01372 µM	1.07
[4], 0.04115 µM	1.02
[4], 0.1235 µM	1.02
[4], 0.3704 µM	1.06
[4], 1.111 µM	1.05
[4], 3.333 µM	1.07
[4], 10 µM	1.01
[5], 0.00017 µM	1.04
[5], 0.00051 µM	1.05
[5], 0.00152 µM	1.05
[5], 0.00457 µM	1.04
[5], 0.01372 µM	1.06
[5], 0.04115 µM	1.058
[5], 0.1235 µM	1.06
[5], 0.3704 µM	1.07
[5], 1.111 µM	1.05
[5], 3.333 µM	1.07
[5], 10 µM	0.964
[6], 0.00017 µM	0.961
[6], 0.00051 µM	0.966
[6], 0.00152 µM	0.985
[6], 0.00457 µM	1
[6], 0.01372 µM	0.996
[6], 0.04115 µM	1
[6], 0.1235 µM	1.01
[6], 0.3704 µM	0.994
[6], 1.111 µM	1
[6], 3.333 µM	0.988
[6], 10 µM	0.947
[7], 0.00017 µM	1.04
[7], 0.00051 µM	1.04
[7], 0.00152 µM	1.07
[7], 0.00457 µM	1.07
[7], 0.01372 µM	1.02
[7], 0.04115 µM	1.05
[7], 0.1235 µM	1.04
[7], 0.3704 µM	0.997
[7], 1.111 µM	1.022
[7], 3.333 µM	1.06
[7], 10 µM	0.952
[8], 0.00017 µM	1.03
[8], 0.00051 µM	1.03
[8], 0.00152 µM	1.02
[8], 0.00457 µM	1.03
[8], 0.01372 µM	1.02
[8], 0.04115 µM	1.03
[8], 0.1235 µM	1.06
[8], 0.3704 µM	1.02
[8], 1.111 µM	1.04
[8], 3.333 µM	1.03
[8], 10 µM	0.687
[9], 0.00017 µM	1.1
[9], 0.00051 µM	1.11
[9], 0.00152 µM	1.12
[9], 0.00457 µM	1.13
[9], 0.01372 µM	1.146
[9], 0.04115 µM	1.15
[9], 0.1235 µM	1.12
[9], 0.3704 µM	1.15
[9], 1.111 µM	1.12
[9], 3.333 µM	1.16
[9], 10 µM	1.21
[10], 0.00017 µM	0.989
[10], 0.00051 µM	0.999
[10], 0.00152 µM	0.996
[10], 0.00457 µM	1.04
[10], 0.01372 µM	1.009
[10], 0.04115 µM	1
[10], 0.1235 µM	1.03
[10], 0.3704 µM	1.05
[10], 1.111 µM	1.06
[10], 3.333 µM	1.056
[10], 10 µM	1.02
[11], 0.00017 µM	1.03
[11], 0.00051 µM	1.03
[11], 0.00152 µM	1.05
[11], 0.00457 µM	1.07
[11], 0.01372 µM	1.05
[11], 0.04115 µM	1.05
[11], 0.1235 µM	1.035
[11], 0.3704 µM	1.06
[11], 1.111 µM	1.034
[11], 3.333 µM	1.07
[11], 10 µM	1.06
[12], 0.00017 µM	1.01
[12], 0.00051 µM	1.03
[12], 0.00152 µM	1
[12], 0.00457 µM	0.996
[12], 0.01372 µM	0.96
[12], 0.04115 µM	1
[12], 0.1235 µM	1.011
[12], 0.3704 µM	1.03
[12], 1.111 µM	1.06
[12], 3.333 µM	1.07
[12], 10 µM	1.07
